Where two headings read alike, the source gives them in different places.
Tests used:
[1] = tested on: HCT116 colorectal cancer cells; assay: Cisplatin Sensitization Assay (96 h MTS cell viability); type: cell-based; details: concentration of compound required to reduce the IC50 of Cisplatin alone by at least 3-fold
Method: (§1) Compounds were screened for their ability to sensitize HCT116 colorectal cancer cells to Cisplatin using a 96 h cell viability (MTS) assay. […] Compounds and Cisplatin were then both added simultaneously to the cell media in 2-fold serial dilutions from a top final concentration of 10 μM as a full matrix of concentrations in a final cell volume of 200 μl, and the cells were then incubated at 37° C. in 5% CO2. After 96 h, 40 μl of MTS reagent (Promega G358a) was added to each well and the cells were incubated for 1 h at 37° C. in 5% CO2.

intracellular ATR = intracellular ATR (Homo sapiens (Human), UniProt Q13535); assay: Cellular ATR Inhibition Assay (H2AX phosphorylation in hydroxyurea treated HT29 cells); type: cell-based; details: 2 mM hydroxyurea, phosphorylated H2AX-positive nuclei
Sequence of intracellular ATR (Q13535 whole entry): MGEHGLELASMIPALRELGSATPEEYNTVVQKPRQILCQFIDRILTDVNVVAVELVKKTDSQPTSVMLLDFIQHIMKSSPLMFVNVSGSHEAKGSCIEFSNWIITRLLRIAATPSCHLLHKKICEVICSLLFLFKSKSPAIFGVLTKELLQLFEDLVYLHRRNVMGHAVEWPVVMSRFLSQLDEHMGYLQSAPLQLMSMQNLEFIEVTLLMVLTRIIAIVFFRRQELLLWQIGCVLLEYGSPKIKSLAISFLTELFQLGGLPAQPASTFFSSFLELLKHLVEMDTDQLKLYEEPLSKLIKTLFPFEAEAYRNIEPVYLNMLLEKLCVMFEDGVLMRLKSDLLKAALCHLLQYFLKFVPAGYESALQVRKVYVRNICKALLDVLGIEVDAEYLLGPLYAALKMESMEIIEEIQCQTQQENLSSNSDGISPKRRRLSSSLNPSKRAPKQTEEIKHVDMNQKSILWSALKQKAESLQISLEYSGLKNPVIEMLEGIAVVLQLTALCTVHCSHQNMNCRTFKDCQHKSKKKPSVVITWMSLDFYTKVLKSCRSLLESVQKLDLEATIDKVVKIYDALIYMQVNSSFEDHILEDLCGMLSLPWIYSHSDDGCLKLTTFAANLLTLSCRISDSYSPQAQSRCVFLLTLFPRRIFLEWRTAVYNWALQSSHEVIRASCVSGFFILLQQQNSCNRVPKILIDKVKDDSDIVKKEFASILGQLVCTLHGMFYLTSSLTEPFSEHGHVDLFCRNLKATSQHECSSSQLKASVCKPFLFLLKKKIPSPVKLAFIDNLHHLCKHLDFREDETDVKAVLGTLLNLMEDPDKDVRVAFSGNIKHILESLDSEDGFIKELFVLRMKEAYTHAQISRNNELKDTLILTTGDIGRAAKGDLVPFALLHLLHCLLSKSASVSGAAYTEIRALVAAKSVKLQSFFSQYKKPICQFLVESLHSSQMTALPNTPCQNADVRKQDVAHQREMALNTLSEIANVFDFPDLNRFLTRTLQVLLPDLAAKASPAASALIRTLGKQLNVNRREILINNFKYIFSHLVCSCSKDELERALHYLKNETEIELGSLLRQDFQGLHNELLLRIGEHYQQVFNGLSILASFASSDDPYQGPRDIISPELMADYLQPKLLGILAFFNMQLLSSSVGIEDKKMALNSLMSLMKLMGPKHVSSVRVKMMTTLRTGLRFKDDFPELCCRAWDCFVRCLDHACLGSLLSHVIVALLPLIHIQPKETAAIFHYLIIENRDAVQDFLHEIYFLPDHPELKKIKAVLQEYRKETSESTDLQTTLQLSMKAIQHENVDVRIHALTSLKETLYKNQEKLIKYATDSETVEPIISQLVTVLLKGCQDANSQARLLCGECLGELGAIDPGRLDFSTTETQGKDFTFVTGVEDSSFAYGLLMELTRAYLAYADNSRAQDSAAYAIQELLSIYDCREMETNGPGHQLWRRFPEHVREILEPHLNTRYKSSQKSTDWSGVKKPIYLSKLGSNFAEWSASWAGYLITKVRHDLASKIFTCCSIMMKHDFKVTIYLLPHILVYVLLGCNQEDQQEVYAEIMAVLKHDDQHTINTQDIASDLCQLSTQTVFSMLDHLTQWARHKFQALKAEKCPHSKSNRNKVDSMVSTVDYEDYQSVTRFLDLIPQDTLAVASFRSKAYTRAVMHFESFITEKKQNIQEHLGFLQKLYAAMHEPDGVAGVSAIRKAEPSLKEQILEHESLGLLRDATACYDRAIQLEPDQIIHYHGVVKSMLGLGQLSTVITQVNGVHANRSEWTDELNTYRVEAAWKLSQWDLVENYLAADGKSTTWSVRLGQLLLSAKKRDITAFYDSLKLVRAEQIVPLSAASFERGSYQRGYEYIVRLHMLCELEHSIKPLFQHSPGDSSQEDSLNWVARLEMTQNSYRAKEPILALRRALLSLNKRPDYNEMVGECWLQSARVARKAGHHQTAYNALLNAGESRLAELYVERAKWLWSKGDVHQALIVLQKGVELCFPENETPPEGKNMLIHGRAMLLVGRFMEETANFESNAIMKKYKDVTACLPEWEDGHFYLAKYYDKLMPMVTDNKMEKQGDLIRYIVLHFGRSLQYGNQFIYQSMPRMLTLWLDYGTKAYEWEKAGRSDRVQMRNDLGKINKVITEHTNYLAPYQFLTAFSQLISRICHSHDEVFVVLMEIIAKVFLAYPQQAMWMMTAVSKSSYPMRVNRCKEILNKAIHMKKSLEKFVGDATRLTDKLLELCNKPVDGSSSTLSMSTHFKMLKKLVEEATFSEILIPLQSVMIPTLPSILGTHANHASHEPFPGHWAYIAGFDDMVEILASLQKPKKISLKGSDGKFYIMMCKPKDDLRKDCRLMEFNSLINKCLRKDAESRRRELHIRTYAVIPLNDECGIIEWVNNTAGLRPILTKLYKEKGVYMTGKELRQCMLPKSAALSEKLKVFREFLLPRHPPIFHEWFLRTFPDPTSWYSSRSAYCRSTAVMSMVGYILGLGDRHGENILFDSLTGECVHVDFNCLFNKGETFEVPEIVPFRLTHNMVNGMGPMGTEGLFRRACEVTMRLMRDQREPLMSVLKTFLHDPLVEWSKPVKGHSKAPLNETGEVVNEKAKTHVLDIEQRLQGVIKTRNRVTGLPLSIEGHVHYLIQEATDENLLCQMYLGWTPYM
Sequence of intracellular ATR (Q8WXE1 whole entry partner): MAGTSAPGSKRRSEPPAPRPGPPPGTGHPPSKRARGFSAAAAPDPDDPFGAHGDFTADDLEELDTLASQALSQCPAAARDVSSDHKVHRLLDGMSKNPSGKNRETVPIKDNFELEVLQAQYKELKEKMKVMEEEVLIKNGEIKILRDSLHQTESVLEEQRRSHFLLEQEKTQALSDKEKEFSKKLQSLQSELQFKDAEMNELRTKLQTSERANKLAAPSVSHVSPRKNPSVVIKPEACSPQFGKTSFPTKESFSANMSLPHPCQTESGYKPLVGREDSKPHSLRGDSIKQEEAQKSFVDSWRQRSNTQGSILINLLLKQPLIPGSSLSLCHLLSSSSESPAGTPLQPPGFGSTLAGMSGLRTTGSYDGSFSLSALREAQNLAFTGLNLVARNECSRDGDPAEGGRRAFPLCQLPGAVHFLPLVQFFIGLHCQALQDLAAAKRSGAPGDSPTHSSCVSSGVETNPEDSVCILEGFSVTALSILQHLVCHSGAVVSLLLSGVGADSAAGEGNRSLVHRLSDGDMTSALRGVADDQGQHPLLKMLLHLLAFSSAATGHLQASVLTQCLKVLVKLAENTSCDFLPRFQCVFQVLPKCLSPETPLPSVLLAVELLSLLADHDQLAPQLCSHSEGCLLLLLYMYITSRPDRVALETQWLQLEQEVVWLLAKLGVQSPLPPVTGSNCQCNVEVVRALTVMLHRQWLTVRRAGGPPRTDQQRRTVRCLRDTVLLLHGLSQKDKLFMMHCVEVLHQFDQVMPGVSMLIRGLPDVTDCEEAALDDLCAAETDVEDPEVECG
Method: Compounds can be screened for their ability to inhibit intracellular ATR using an immunofluorescence microscopy assay to detect phosphorylation of the ATR substrate histone H2AX in hydroxyurea treated cells. HT29 cells are plated at 14,000 cells per well in 96-well black imaging plates (BD 353219) in McCoy's 5 A media (Sigma M8403) supplemented with 10% foetal bovine serum (JRH Biosciences 12003), Penicillin/Streptomycin solution diluted 1:100 (Sigma P7539), and 2 mM L-glutamine (Sigma G7513), and allowed to adhere overnight at 37° C. in 5% CO2. Compounds are then added to the cell media from a final concentration of 25 μM in 3-fold serial dilutions and the cells are incubated at 37° C. in 5% CO2. After 15 min, hydroxyurea (Sigma H8627) is added to a final concentration of 2 mM.
After 45 min of treatment with hydroxyurea, the cells are washed in PBS, fixed for 10 min in 4% formaldehyde diluted in PBS (Polysciences Inc 18814), washed in 0.2% Tween-20 in PBS (wash buffer), and permeabilised for 10 min in 0.5% Triton X-100 in PBS, all at room temperature. The cells are then washed once in wash buffer and blocked for 30 min at room temperature in 10% goat serum (Sigma G9023) diluted in wash buffer (block buffer). […]
Cells are imaged for Alexa Fluor 488 and Hoechst intensity using the BD Pathway 855 Bioimager and Attovision software (BD Biosciences, Version 1.6/855) to quantify phosphorylated H2AX Ser139 and DNA staining, respectively. The percentage of phosphorylated H2AX-positive nuclei in a montage of 9 images at 20× magnification is then calculated for each well using BD Image Data Explorer software (BD Biosciences Version 2.2.15). […] The percentage of H2AX positive nuclei is finally plotted against concentration for each compound and IC50s for intracellular ATR inhibition are determined using Prism software(GraphPad Prism version 3.0cx for Macintosh, GraphPad Software, San Diego Calif., USA).

[2] = tested on: HCT116 colorectal cancer cells; assay: HCT116 cell viability (MTS), compound alone; type: cell-based; details: Homo sapiens, HCT-116, 96 h, read-out: HTC116 (MTS) IC50
Method: as §1

full-length ATR = full-length ATR (Homo sapiens (Human), UniProt Q13535); assay: ATR Inhibition Assay (radioactive-phosphate incorporation); type: biochemical
Sequence of full-length ATR (Q13535 whole entry): as the sequence (Q13535 whole entry) above
Method in brief: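 Full-length human ATR (5 nM) was assayed at 25 °C in 50 mM Tris/HCl pH 7.5, 10 mM MgCl2, 1 mM DTT, with 10 μM [γ-33P]ATP and 800 μM peptide, after 10-min compound preincubation. Reactions were stopped after 24 h, captured on phosphocellulose and counted; Ki(app) came from non-linear regression of initial rates.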

[3] = 5 nM full-length ATR, 10 μM ATP, Ki(app), read-out: ATR Inhibition Assay Ki

SMILES	Synergy with Cisplatin (uM) [1]	IC50 (intracellular ATR) [nM]	IC50 [2] [nM]	Ki (full-length ATR; [3]) [nM]	Ki (full-length ATR; read-out: ATR Ki) [nM]
CNCc1ccc(-c2nnc(-c3nc(-c4ccc(S(=O)(=O)C(C)C)cc4)cnc3N)o2)cc1 [IA-159, 5-(4-isopropylsulfonylphenyl)-3-[5-[4-(methylaminomethyl)phenyl]-1,3,4-oxadiazol-2-yl]pyrazin-2-amine]	+++ (Compounds with an IC50 or Ki value of ≤100 nM are marked with “+++.”)	≤ 100	100 to 1000	≤ 100	≤ 10
CS(=O)(=O)c1ccc(-c2cnc(N)c(C(=O)Nc3ccccc3)n2)cc1 [Compound I-82, 3-amino-6-(4-(methylsulfonyl)phenyl)-N-phenylpyrazine-2-carboxamide]	++ (Compounds with an IC50 or Ki value >100 nM but ≤1 uM are marked with “++.”)	1000 to 20000	1000 to 20000	≤ 100	10 to 100
CC(O)CNCc1ccc(-c2cc(-c3nc(-c4ccc(S(=O)(=O)C(C)C)cc4)cnc3N)on2)cc1 (centres unmarked) [IIA-11, 1-(4-(5-(3-amino-6-(4-(isopropylsulfonyl)phenyl)pyrazin-2-yl)isoxazol-3-yl)benzylamino)propan-2-ol]	+++ (Compounds with an IC50 or Ki value of ≤100 nM are marked with “+++.”)	≤ 100	100 to 1000	≤ 100	≤ 10
N#Cc1cccn1-c1cnc(N)c(-c2nnc(-c3ccccc3)o2)n1 [IA-264, 1-[5-amino-6-(5-phenyl-1,3,4-oxadiazol-2-yl)pyrazin-2-yl]pyrrole-2-carbonitrile]	–	–	–	–	≤ 10
COc1ccc(-c2nnc(-c3nc(-c4ccc(C(=O)N(C)C)cc4)cnc3N)o2)cc1 [IA-157, 4-[5-amino-6-[5-(4-methoxyphenyl)-1,3,4-oxadiazol-2-yl]pyrazin-2-yl]-N,N-dimethyl-benzamide]	–	–	–	–	10 to 100

— patent US10479784B2, “Substituted pyrazin-2-amines as inhibitors of ATR kinase” (Vertex Pharmaceuticals Incorporated, priority 2008, dated 2019)
